{
  "source": "patent US20020028936A1",
  "about": "“1,3-disubstituted indolin-2-ones for neoplasia” (priority 1999, published 2002)",
  "key": {"[1]": {"target": "T1, purified cyclooxygenase Type I (Ovis aries, UniProt P05979)", "T1 construct": "The COX was purified from ram seminal vesicles; from tissue; host or cells: ram seminal vesicles", "T1 sequence (P05979 25-600)": "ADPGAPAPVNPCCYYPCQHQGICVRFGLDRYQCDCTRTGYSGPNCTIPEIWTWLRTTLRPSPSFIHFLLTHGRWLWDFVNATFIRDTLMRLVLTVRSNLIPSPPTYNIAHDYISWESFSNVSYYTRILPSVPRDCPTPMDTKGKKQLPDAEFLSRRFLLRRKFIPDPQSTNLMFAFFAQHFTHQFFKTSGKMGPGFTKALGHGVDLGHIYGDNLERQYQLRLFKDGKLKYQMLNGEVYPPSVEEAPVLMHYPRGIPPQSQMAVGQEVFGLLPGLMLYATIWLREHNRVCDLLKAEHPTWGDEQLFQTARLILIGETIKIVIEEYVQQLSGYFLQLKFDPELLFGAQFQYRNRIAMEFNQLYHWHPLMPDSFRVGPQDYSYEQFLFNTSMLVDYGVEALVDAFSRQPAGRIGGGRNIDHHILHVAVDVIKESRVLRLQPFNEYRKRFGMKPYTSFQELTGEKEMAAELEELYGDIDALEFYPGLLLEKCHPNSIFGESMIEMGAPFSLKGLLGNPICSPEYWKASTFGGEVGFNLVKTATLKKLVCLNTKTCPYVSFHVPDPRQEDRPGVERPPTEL", "assay": "Cyclooxygenase (COX) inhibition, purified COX", "type": "biochemical", "conditions": "100 μM compound; COX purified from ram seminal vesicles; arachidonic acid 100 μM, 2.0 min at 37° C.", "method": "The assay was terminated by the addition of TCA, and COX activity was determined by absorbance at 530 nm."}, "[2]": {"tested_on": "human colon carcinoma cell line, HT-29", "assay": "Growth inhibition, Sulforhodamine B (SRB) protein binding assay", "type": "cell-based", "conditions": "HT-29 cells, six days continuous exposure, read-out: IC50 value (concentration of drug needed to inhibit tumor cell growth by 50%)", "method": "The compound of Example No. 1 was assayed for their growth inhibitory activity on the human colon carcinoma cell line, HT-29 obtained from ATCC (Rockville, Md.), to ascertain the degree of growth inhibition. Growth inhibition of this cell line is indicative of a benefit on precancerous lesions and neoplasms. The cell line and growth inhibition assay employed for such experiments are well characterized, and are used to evaluate the anti-neoplastic properties of substances. The assay is used by the United States National Cancer Institute in its screening program for new anti-cancer drugs.\nDrug stock solutions were made in 100% DMSO and were then diluted with RPMI media for cell culture testing. All drug solutions were prepared fresh on the day of testing. The cultured cells were obtained at passage #99 and grown in RPMI media supplemented with 5% fetal calf serum, and 2 mM glutamine, 100 U/ml penicillin, […] streptomycin, and 0.25 μg/ml amphotericin. The cultures were maintained in a humidified atmosphere of 95% air and 5% CO2 at 37° C. The cultures were passaged at preconfluent densities using a solution of 0.05% trypsin and 0.53 mM EDTA. […]\nTumor cell growth inhibition was assessed using the Sulforhodamine B (SRB) protein binding assay. […] The dye was then solubilized, and the optical density of the resulting solution was determined on a 96-well plate reader. […]"}, "[3]": {"tested_on": "SW-480 colon adenocarcinoma cells", "assay": "Apoptosis, DNA fragmentation (Cell Death Detection ELISA plus)", "type": "cell-based", "conditions": "at 100 μM; SW-480 cells, 48 hrs incubation", "method": "Apoptosis was measured based on the amount of fragmented DNA contained in cell lysates. Briefly, SW-480 colon adenocarcinoma cells were plated in 96-well microtitre plates (“MTP”) at a density of 10K cells/well in 180 μl and were incubated for 24 hrs. Cells were then treated with 20 μl aliquots of appropriately diluted compound, and allowed to incubate for an additional 48 hrs.\nAfter the incubation, samples were prepared according to the following steps. The MTP was centrifuged (15 min., 1000 rpm) and the supernatant was carefully removed by fast inversion of the MTP. […] Samples were analyzed immediately, because storage at 4° C. or −20° C. reduces the ELISA-signals.\nSamples were then processed according to a DNA fragmentation assay protocol, and dose-response curves were generated based on optical density readings. Quantification of DNA was done by a commercially available photometric enzyme-immunoassay manufactured by Mannheim-Boehringer under the name “Cell Death Detection ELISA^plus”. The assay is based on a quantitative sandwich-enzyme-immunoassay-principle using mouse monoclonal antibodies directed against DNA and histones, respectively. […] After removal of unbound antibodies by a washing step, the amount of nucleosomes is quantified by the POD retained in the immunocomplex. POD is determined photometrically with ABTS® (2,2′-Azino-di[3-ethylbenzthiazolin-sulfonate) as substrate. […]"}},
  "data": [
    {"smiles": "O=C1C(=Cc2ccccc2)c2ccccc2N1Cc1ccc(F)cc1", "note": "[Example 1, (Z, E) 1-(4-Fluorobenzyl)-3-Benzylidene-Indolin-2-One]", "values": [
      {"measurement": "COX I % Inhibition (100 μM)", "setting": "[1]", "value": "<25", "unit": "%"},
      {"measurement": "IC50", "setting": "[2]", "value": "~7.3", "unit": "µM"},
      {"measurement": "fold stimulation (apoptosis, fragmented DNA)", "setting": "[3]", "value": 6, "unit": "fold"}
    ]}
  ]
}
